Measured values published in PubChem BioAssay AID1985 (Southern Research Specialized Biocontainment Screening …, 2009).

System: S. Typhi PhoP-promoter GFP reporter, fluorescence, 4 h
Experiment: PhoP regulon inhibitor project modified counter assay, GFP fluorescence readout, dose response (AID 1985)

Structure (SMILES)	IC50 [µM]
O=C(Nc1ccc(Cc2ccncc2)cc1)c1ccc([N+](=O)[O-])o1	39.5
O=C(Nc1c(Cl)ccc2nsnc12)c1ccc([N+](=O)[O-])o1	56.7
C#CCOCCOCCOCCNc1nc(N2CCN(C(=O)CCCCCCCCCCNC(=O)[C@H](CCCCN)n3cc(C[C@@H](C)CC)nn3)CC2)nc(N2CCN(C(=O)CCCCCCCCCCNC(=O)[C@H](CCCN=C(N)N)n3cc(C[C@@H](C)CC)nn3)CC2)n1	68.2
CC(C)N1CSC(=S)N(Cc2ccccc2)C1	59.7
O=C(C[n+]1cccc(CNC(=O)c2ccc(OC(F)F)cc2)c1)Nc1ccc(SC(F)F)cc1	42.1
O=C1NCCN1c1ncc([N+](=O)[O-])s1	15.9
O=C(N/N=C/c1ccccn1)c1cccs1	42.8
CC(=O)OC1=C(O)C(=O)c2ccccc2C1=O	78.6
Cc1ccc(OCC(=O)N/N=C/c2ccc([N+](=O)[O-])o2)cc1	28.6
COc1ccc(/C=C/c2cc(-c3ccc(C)cc3)o[n+]2C)cc1	100
N#C/C(N=Nc1ccccc1O)=N\Nc1ccccc1O	9.47
Cn1c(SCC(=O)N/N=C/c2ccc([N+](=O)[O-])s2)nnc1-c1ccc(Cl)cc1	38.9
O=C(N/N=C/c1ccc([N+](=O)[O-])s1)c1cccnc1	22.8
NC1=NC[C@H](Cc2ccc(O)cc2)N1CCC12CC3CC(CC(C3)C1)C2	95
Cc1cc(=O)[nH]c(-n2nc(C)cc2C)n1	67.5
Cc1occc1C(=O)N/N=C/c1cccs1	45.7
N#Cc1c(-c2ccccc2)ccn(Cc2cccc(Cl)c2)c1=O	21.2
CCOc1ccc(Nc2nc(N)c3ccccc3n2)cc1	44.5
Cc1cccc2c1Sc1ccc(Cl)cc1CC2N1CCNCC1 (stereo unspecified)	32.7
CC(NCc1ccc(Cl)cc1)C(O)c1ccccc1 (stereo unspecified)	128
COC12C(COC(N)=O)C3=C(C(=O)C(C)=C(N)C3=O)N1CC1C2N1C (stereo unspecified)	31.2

Structure (SMILES)	IC50 [µM]
CN1CCN(CCCN2c3ccccc3Sc3ccc(C(F)(F)F)cc32)CC1	124
O=C(NC1CCCC1)c1ccc(Br)s1	34
C#CCOCCOCCOCCNc1nc(N2CCN(C(=O)CCCCCCCCCCNC(=O)[C@H](CO)n3cc(CCCCCN)nn3)CC2)nc(N2CCN(C(=O)CCCCCCCCCCNC(=O)[C@H](CCCN=C(N)N)n3cc(C[C@@H](C)CC)nn3)CC2)n1	142
CC[C@H]1OC(=O)[C@H](C)[C@@H](O[C@H]2C[C@@](C)(OC)[C@@H](O)[C@H](C)O2)[C@H](C)[C@@H](O[C@@H]2O[C@H](C)C[C@H](N(C)C)[C@H]2O)[C@](C)(OC)C[C@@H](C)C(=O)[C@H](C)[C@@H](O)[C@]1(C)O	125
Cc1ccc(-c2ccccc2NC(=O)CS(=O)CC(=O)Nc2ccc(C)c(Cl)c2)o1 (stereo unspecified)	46.5
CCCCCc1ccc(OCCCC[n+]2ccccc2)c(CCCCC)c1	74.5
CC(=O)Nc1cccc(NC(=O)Nc2ccc(F)cc2F)c1	114
O=C(N/N=C/c1cc(Cl)cc(Cl)c1O)c1ccncc1	20.2
O=C(Nc1ccc2nc(-c3ccc(Br)o3)[nH]c2c1)c1cccs1	78.7
CCN1/C(=C/C=C/C=C/c2sc3ccccc3[n+]2CC)Sc2ccccc21	30.9
Cc1ccc2nc(N(CCCN(C)C)C(=O)c3ccc4c(c3)CCCC4)sc2c1	78.5
Cc1ccccc1C(=O)Nc1cccc(C(=O)N/N=C/c2cc(Cl)cc([N+](=O)[O-])c2O)c1	33.8
O=C(N/N=C/c1cc(O)ccc1Br)c1cccnc1	33.2
CCN(CC(=O)NC(C)(C)C)C(=O)COc1c(Cl)cc(Cl)c2ccc(C)nc12	43.5
[O-][n+]1c2ccccc2cc2ccccc21	88
COc1cccc(/C=N/NC(=O)C(=O)N2CCCC2)c1O	101
O=c1[nH]c(-c2ccccn2)nc(C(F)(F)F)c1Br	66.7
CC(C)[C@@H]1CC[C@@H](C)C[C@H]1OC(=O)C[n+]1cc(-c2ccc(Cl)cc2)n2c1CCCCC2	142
O=C(N/N=C/c1ccc([N+](=O)[O-])o1)c1ccc(O)cc1	18.3
CN(C)c1ccc(O)c2c1CC1CC3C(N(C)C)C(=O)C(C(N)=O)=C(O)[C@@]3(O)C(=O)C1=C2O (stereo partly specified)	3.21
